Earlier results as cited in patent US10493089B2, “Solid composition comprising amorphous sofosbuvir” (priority 2014, dated 2019).

SMILES	behaviour under stress conditions (40° C., relative humidity 75%)	relative humidity at which it deliquesces (amorphous form compared to crystalline forms)
CC(C)OC(=O)[C@H](C)N[P@](=O)(OC[C@H]1O[C@@H](n2ccc(=O)[nH]c2=O)[C@](C)(F)[C@@H]1O)Oc1ccccc1 [sofosbuvir, (S)-isopropyl 2-(((S)-(((2R,3R,4R,5R)-5-(2,4-dioxo-3,4-dihydropyrimidin-1(2H)-yl)-4-fluoro-3-hydroxy-4-methyltetrahydrofuran-2-yl)methoxy)(phenoxy)phosphoryl)amino)propanoate]	deliquesces after a few hours	
CC(C)OC(=O)[C@H](C)N[P@](=O)(OC[C@H]1O[C@@H](n2ccc(=O)[nH]c2=O)[C@](C)(F)[C@@H]1O)Oc1ccccc1 [Amorphous sofosbuvir]		above 50%
